Assay results taken from ChEMBL document CHEMBL1126980, “New, potent anthelmintic and acaricidal agents: 4-deoxy-4-thio-substituted avermectin derivatives” (Bioorg Med Chem Lett, 1993).
In brackets after ≈: the same amount, converted by molar mass.

Experiments:
Ovis aries [1] = experiment: Tested for the anthelmintic efficacy against Trichostrongylus colubriformis at 0.1 mg/kg; range is 91-100%; assay type: functional
Artemia salina = experiment: Tested in vitro for the biological efficacy using Artemia salina (brine shrimp) immobilization assay; assay type: functional
Ovis aries [2] = experiment: Tested for the anthelmintic efficacy against Ostertagia circumcincta at 0.1 mg/kg; range is 76-90%; assay type: functional
Ovis aries [3] = experiment: Tested for the anthelmintic efficacy against Trichostrongylus axei at 0.1 mg/kg; range is 91-100%; assay type: functional
[4] = tested on: Trichostrongylus colubriformis; experiment: Tested in vivo for the biological efficacy using Trichostrongylus colubriformis gerbil assay; assay type: functional
Ovis aries [5] = experiment: Tested for the anthelmintic efficacy against Oesphagostomum columbianum at 0.1 mg/kg; range is 91-100%; assay type: functional
Tetranychus urticae = experiment: Tested for acaricidal efficacy using a Tetranychus urticae (two-spotted spider mite, TSSM) contact assay; assay type: functional; parameters: concentration or dose not given beside the values
Ovis aries [6] = experiment: Tested for the anthelmintic efficacy against Cooperia curticei at 0.1 mg/kg; range is 91-100%; assay type: functional
Caenorhabditis elegans = experiment: Tested in vitro for the biological efficacy using Caenorhabditis elegans binding assay; assay type: functional, organism-based
Ovis aries [7] = experiment: Tested for anthelmintic efficacy against Haemonchus contortus at 0.1 mg/kg; range is 91-100%; assay type: functional
Ovis aries [8] = experiment: Tested for the anthelmintic efficacy against Trichostrongylus axei at 0.1 mg/kg; range is 76-90%; assay type: functional
Ovis aries [9] = experiment: Tested for the anthelmintic efficacy against Cooperia curticei at 0.1 mg/kg; assay type: functional
Ovis aries [10] = experiment: Tested for the anthelmintic efficacy against Ostertagia circumcincta at 0.1 mg/kg; range is 91-100%; assay type: functional
Ovis aries [11] = experiment: Tested for the anthelmintic efficacy against Cooperia curticei at 0.15 mg/kg; range is 91-100%; assay type: functional
Ovis aries [12] = experiment: Tested for the anthelmintic efficacy against Trichostrongylus axei at 0.15 mg/kg; range is 91-100%; assay type: functional
Ovis aries [13] = experiment: Tested for anthelmintic efficacy against Haemonchus contortus at 0.15 mg/kg; range is 76-90%; assay type: functional
Ovis aries [14] = experiment: Tested for the anthelmintic efficacy against Ostertagia circumcincta at 0.15 mg/kg; range is 76-90%; assay type: functional
Ovis aries [15] = experiment: Tested for the anthelmintic efficacy against Trichostrongylus colubriformis at 0.15 mg/kg; range is 91-100%; assay type: functional
Ovis aries [16] = experiment: Tested for the anthelmintic efficacy against Oesphagostomum columbianum at 0.15 mg/kg; assay type: functional
Ovis aries [17] = experiment: Tested for the anthelmintic efficacy against Trichostrongylus colubriformis at 0.1 mg/kg; range is 51-75%; assay type: functional
Ovis aries [18] = experiment: Tested for the anthelmintic efficacy against Trichostrongylus colubriformis at 0.1 mg/kg; range is 76-90%; assay type: functional
Ovis aries [19] = experiment: Tested for the anthelmintic efficacy against Cooperia curticei at 0.1 mg/kg; range is 51-75%; assay type: functional
Ovis aries [20] = experiment: Tested for the anthelmintic efficacy against Ostertagia circumcincta at 0.1 mg/kg; range is 51-75%; assay type: functional
Ovis aries [21] = experiment: Tested for the anthelmintic efficacy against Cooperia curticei at 0.1 mg/kg; range is 76-90%; assay type: functional

SMILES	Reduction (Ovis aries [1])	IC100 (Artemia salina)	Reduction (Ovis aries [3])	ED85 [4]	Reduction (Ovis aries [5])	Mortality (Tetranychus urticae)	Reduction (Ovis aries [6])	IC50 (Caenorhabditis elegans)	Reduction (Ovis aries [7])	Reduction (Ovis aries [10])	other results
CCC(C)[C@H]1O[C@]2(C=C[C@@H]1C)C[C@@H]1C[C@@H](C/C=C(\C)[C@@H](O[C@H]3C[C@H](OC)[C@@H](O[C@H]4C[C@H](OC)[C@@H](S(C)(=O)=O)[C@H](C)O4)[C@H](C)O3)[C@@H](C)/C=C/C=C3\CO[C@@H]4[C@H](O)C(C)=C[C@@H](C(=O)O1)[C@]34O)O2 (some centres not stated)	91%	430 ng/mL	91%	0.125 mg/kg	91%	85%	91%	0.098 ng/mL (≈ 0.105 nM)	91%		Reduction (Ovis aries [2]): 76%
CCC(C)[C@H]1O[C@]2(C=C[C@@H]1C)C[C@@H]1C[C@@H](C/C=C(\C)[C@@H](O[C@H]3C[C@H](OC)[C@@H](O[C@H]4C[C@H](OC)[C@H](SCCOC(C)=O)[C@H](C)O4)[C@H](C)O3)[C@@H](C)/C=C/C=C3\CO[C@@H]4[C@H](O)C(C)=C[C@@H](C(=O)O1)[C@]34O)O2 (some centres not stated)	91%	1730 ng/mL		0.125 mg/kg	91%	68%		0.525 ng/mL (≈ 0.538 nM)	91%	91%	Reduction (Ovis aries [8]): 76%; Reduction (Ovis aries [9]): <50%
CCC(C)[C@H]1O[C@]2(C=C[C@@H]1C)C[C@@H]1C[C@@H](C/C=C(\C)[C@@H](O[C@H]3C[C@H](OC)[C@H](S(=O)(=O)CCO)[C@H](C)O3)[C@@H](C)/C=C/C=C3\CO[C@@H]4[C@H](O)C(C)=C[C@@H](C(=O)O1)[C@]34O)O2 (some centres not stated)		870 ng/mL		> 0.25 mg/kg		94%					Reduction (Ovis aries [11]): 91%; Reduction (Ovis aries [12]): 91%; Reduction (Ovis aries [13]): 76%; Reduction (Ovis aries [14]): 76%; Reduction (Ovis aries [15]): 91%; Reduction (Ovis aries [16]): <50%
CCC(C)[C@H]1O[C@]2(C=C[C@@H]1C)C[C@@H]1C[C@@H](C/C=C(\C)[C@@H](O[C@H]3C[C@H](OC)[C@@H](O[C@H]4C[C@H](OC)[C@H](SCCNC(C)=O)[C@H](C)O4)[C@H](C)O3)[C@@H](C)/C=C/C=C3\CO[C@@H]4[C@H](O)C(C)=C[C@@H](C(=O)O1)[C@]34O)O2 (some centres not stated)		870 ng/mL	91%	0.031 mg/kg	91%	29%	91%	0.127 ng/mL (≈ 0.13 nM)	91%	91%	Reduction (Ovis aries [17]): 51%
CCC(C)[C@H]1O[C@]2(C=C[C@@H]1C)C[C@@H]1C[C@@H](C/C=C(\C)[C@@H](O[C@H]3C[C@H](OC)[C@@H](O[C@H]4C[C@H](OC)[C@H](S(=O)(=O)CCO)[C@H](C)O4)[C@H](C)O3)[C@@H](C)/C=C/C=C3\CO[C@@H]4[C@H](O)C(C)=C[C@@H](C(=O)O1)[C@]34O)O2 (some centres not stated)		870 ng/mL	91%	0.063 mg/kg	91%	34%		0.363 ng/mL (≈ 0.376 nM)	91%	91%	Reduction (Ovis aries [18]): 76%; Reduction (Ovis aries [19]): 51%
CCC(C)[C@H]1O[C@]2(C=C[C@@H]1C)C[C@@H]1C[C@@H](C/C=C(\C)[C@@H](O[C@H]3C[C@H](OC)[C@@H](O[C@H]4C[C@H](OC)[C@H](SCCO)[C@H](C)O4)[C@H](C)O3)[C@@H](C)/C=C/C=C3\CO[C@@H]4[C@H](O)C(C)=C[C@@H](C(=O)O1)[C@]34O)O2 (some centres not stated)		650 ng/mL	91%	0.063 mg/kg	91%	55%		0.784 ng/mL (≈ 0.84 nM)	91%	91%	Reduction (Ovis aries [18]): 76%; Reduction (Ovis aries [9]): <50%
CCC(C)[C@H]1O[C@]2(C=C[C@@H]1C)C[C@@H]1C[C@@H](C/C=C(\C)[C@@H](O[C@H]3C[C@H](OC)[C@@H](O[C@H]4C[C@H](OC)[C@@H](SC)[C@H](C)O4)[C@H](C)O3)[C@@H](C)/C=C/C=C3\CO[C@@H]4[C@H](O)C(C)=C[C@@H](C(=O)O1)[C@]34O)O2 (some centres not stated)		3470 ng/mL		0.25 mg/kg	91%	98%		0.226 ng/mL (≈ 0.25 nM)	91%		Reduction (Ovis aries [20]): 51%; Reduction (Ovis aries [21]): 76%; Reduction (Ovis aries [8]): 76%; Reduction (Ovis aries [17]): 51%
CCC(C)[C@H]1O[C@]2(CC[C@@H]1C)C[C@@H]1C[C@@H](C/C=C(\C)[C@@H](O[C@H]3C[C@H](OC)[C@@H](O[C@H]4C[C@H](OC)[C@H](S(=O)(=O)CCO)[C@H](C)O4)[C@H](C)O3)[C@@H](C)/C=C/C=C3\CO[C@@H]4[C@H](O)C(C)=C[C@@H](C(=O)O1)[C@]34O)O2 (some centres not stated)	91%	650 ng/mL	91%	0.125 mg/kg	91%	48%	91%	0.119 ng/mL (≈ 0.123 nM)	91%	91%	
CCC(C)[C@H]1O[C@]2(C=C[C@@H]1C)C[C@@H]1C[C@@H](C/C=C(\C)[C@@H](O[C@H]3C[C@H](OC)[C@@H](O[C@H]4C[C@H](OC)[C@@H](O)[C@H](C)O4)[C@H](C)O3)[C@@H](C)/C=C/C=C3\CO[C@@H]4[C@H](O)C(C)=C[C@@H](C(=O)O1)[C@]34O)O2 (some centres not stated) [AVERMECTIN]	91%	400 ng/mL	91%	0.031 mg/kg	91%	95%	91%	0.073 ng/mL (≈ 0.0836 nM)	91%	91%	
CCC(C)[C@H]1O[C@]2(C=C[C@@H]1C)C[C@@H]1C[C@@H](C/C=C(\C)[C@@H](O[C@H]3C[C@H](OC)[C@H](SCCNC(C)=O)[C@H](C)O3)[C@@H](C)/C=C/C=C3\CO[C@@H]4[C@H](O)C(C)=C[C@@H](C(=O)O1)[C@]34O)O2 (some centres not stated)	91%	430 ng/mL	91%	0.063 mg/kg	91%				91%	91%	Reduction (Ovis aries [9]): <50%
CCC(C)[C@H]1O[C@]2(C=C[C@@H]1C)C[C@@H]1C[C@@H](C/C=C(\C)[C@@H](O[C@H]3C[C@H](OC)[C@@H](O[C@H]4C[C@H](OC)[C@H](SC)[C@H](C)O4)[C@H](C)O3)[C@@H](C)/C=C/C=C3\CO[C@@H]4[C@H](O)C(C)=C[C@@H](C(=O)O1)[C@]34O)O2 (some centres not stated)		1730 ng/mL	91%	0.063 mg/kg	91%	92%	91%	0.06 ng/mL (≈ 0.0664 nM)	91%		Reduction (Ovis aries [2]): 76%; Reduction (Ovis aries [18]): 76%
